The record followed here is PubChem BioAssay (NCI).

Values joined by “and” are separate entries in the source; they are usually repeats but may differ in a detail not shown here. Equal entries are not always repeated.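 Compound exposure: 48 hours, 5 concentrations, 96-well plates. The concentration for 50% growth inhibition is given as GI50. TGI: concentration producing complete growth inhibition.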 Where only a bound is given, the exact number is not on record here.

Holding throughout (experiment): DTP human tumour cell line panel, 48 h
In assay [1] the test system is KM12 colon.
Assay [2] concerns M14 melanoma.
For assay [3], the system named is UACC-62 melanoma.
Assay [4] concerns NCI-H460 lung.
The test system of assay [5] is HL-60(TB) leukemia.
The test system of assay [6] is SW-620 colon.
The subject of assay [7] is SK-MEL-28 melanoma.
Assay [8] relates to A549 NSCLC.
In assay [9] the test system is MDA-MB-435.
Assay [10] concerns IGROV1 ovarian.

By GI50 is commonly meant the concentration that inhibits growth by half. As a reminder, the TGI is the concentration at which net growth stops. A lower TGI goes with greater sensitivity of the cells. As for `COc1cc(-c2nn(-c3cccc(NC(=O)CCNc4ccc(N5CCOCC5)cc4)c3)cc2-c2ccncc2)ccc1Cl`, the GI50 in [1] is 2440 nM; in [2] it was 2580 nM; in assay [3] it was 1880 nM; in assay [4], 2950 nM; in assay [5] it was 3.71 µM; in assay [6] it was 3550 nM. Further, the GI50 in assay [7] is 3.13 µM; in assay [8], 1460 nM; in assay [9], 2410 nM; in assay [10], 3310 nM. Besides, the TGI is 20 µM in assay [1]; 10.5 µM in assay [2]; 4.89 µM in [3]; 30 µM in assay [4]; more than 100 µM in assay [5]; more than 100 µM in [6]. Further, the TGI was more than 100 µM in assay [7], 25.1 µM in [8], 7.28 µM in assay [9] and more than 100 µM in [10].

In the case of `CC(=O)Oc1cc2cnc3c4cc(OC(C)=O)c(OC(C)=O)cc4ccc3c2cc1OC(C)=O`, the GI50 in assay [1] was 2470 nM; in assay [2], 1780 nM; in assay [3], 979 nM; in [4], 569 nM; in assay [5], 3.26 µM; in [6] it was 952 nM. Besides, the GI50 in [7] was 3.15 µM; in [8], 3690 nM; in assay [9], 506 nM; in [10], 1010 nM. Moreover, the TGI in assay [1] is more than 100 µM; in assay [2], more than 100 µM; in assay [3], 3.26 µM; in assay [4], more than 100 µM; in [5] it was 19.8 µM; in assay [6], more than 100 µM. For the same molecule, the TGI in [7] was more than 100 µM; in assay [8] it was more than 100 µM; in assay [9] it was more than 100 µM; in [10], 14 µM.

With `COc1ccc(-c2cc(/C=C/C(=O)c3ccc(N)cc3)[nH]n2)cc1`, the GI50 in assay [1] is 1540 nM; in [2], 2670 nM; in [3] it was 1480 nM; in [4] it was 2070 nM; in [5], 1.43 µM; in assay [6], 1690 nM. For the same molecule, the GI50 in assay [7] is 1.87 µM; in assay [8], 2550 nM; in assay [9], 2240 nM; in [10] it was 2270 nM. Also, the concentration for total growth inhibition (TGI) stood at 3.42 µM in assay [1]; 6.54 µM in [2]; 2.94 µM in assay [3]; 4.95 µM in assay [4]; 7.71 µM in assay [5]; 5.41 µM in assay [6]. Moreover, the TGI turned out to be 4.01 µM in assay [7], 10.2 µM in [8], 7 µM in assay [9] and 6.45 µM in assay [10].

Turning to `O=C1Nc2ccc3c(c2/C1=C\c1cc2c(cc1Br)OCO2)OCO3`, the GI50 is 307 nM in assay [1]; 341 nM in [2]; 359 nM in assay [3]; 350 nM in assay [4]; 0.271 µM in assay [5]; 357 nM in assay [6]. Also, the GI50 in assay [7] is 0.911 µM; in assay [8], 731 nM; in assay [9] it was 106 nM; in [10], 199 nM. The TGI in assay [1] is 1.43 µM; in assay [2], 5.76 µM; in assay [3] it was 3.23 µM; in assay [4], 1.35 µM; in [5], 2.35 µM; in [6], 3.47 µM. Besides, the TGI in assay [7] worked out at 5.32 µM; in assay [8], 2.49 µM; in [9] it was 0.305 µM; in [10] it was 1.7 µM.

As for `COc1ccc(C(O)c2cc3c(N)c(C(=O)Nc4cccc(Br)c4C)sc3nc2C)cc1` (centres undefined), the GI50 was 152 nM in [1]; 109 nM in [2]; 141 nM in [3]; 121 nM in [4]; 0.104 µM in assay [5]; 124 nM in assay [6]. Moreover, the GI50 in assay [7] was 5.2 µM; in assay [8], 221 nM; in [9] it was 66.5 nM; in assay [10], 375 nM. Moreover, the TGI is 11.7 µM in assay [1]; more than 24 µM in assay [2]; more than 31 µM in assay [3]; 1.65 µM in [4]; 2.34 µM in assay [5]; more than 33.3 µM in assay [6]. Besides, the TGI in assay [7] is more than 33.3 µM; in assay [8] it was more than 16.8 µM; in assay [9], 0.149 µM; in assay [10], 18.8 µM.

In the case of `CC1(C)N=C(N)N=C(N)N1c1cccc(CCc2ccccc2)c1`, the GI50 was 456 nM in assay [1]; 1290 nM in assay [2]; 490 nM in [3]; 257 nM in assay [4]; 1.89 µM in assay [5]; 156 nM in assay [6]. Besides, the GI50 was 1.04 µM in assay [7], 125 nM in assay [8], 154 nM in assay [9] and 113 nM in assay [10]. For the same molecule, the TGI in assay [1] was 14.6 µM; in assay [2] it was more than 100 µM; in [3], 20.4 µM; in assay [4], more than 39.3 µM; in assay [5] it was 28.7 µM; in [6], more than 100 µM. For the same molecule, the TGI was more than 68.9 µM in assay [7], more than 100 µM in assay [8], 35.4 µM in [9] and 17.6 µM in assay [10].

In the case of `COc1cc(NC2CCCCC2O)c2nc(-c3ccc(Cl)cc3)ccc2c1` (centres undefined), the GI50 in assay [1] was 3820 nM; in [2], 9230 nM; in [3], 11100 nM; in [4], 3350 nM; in assay [5] it was 7.57 µM; in [6] it was 7520 nM. In addition, the GI50 is 14.4 µM in assay [7], 6050 nM in assay [8], 4220 nM in [9] and 24600 nM in assay [10]. In addition, the TGI in assay [1] came out at 29.2 µM; in assay [2], 33.9 µM; in [3] it was 40.6 µM; in assay [4], 12.3 µM; in assay [5] it was 63 µM; in assay [6], 46.7 µM. Besides, the TGI is more than 100 µM in assay [7], more than 100 µM in assay [8], 16.6 µM in assay [9] and more than 100 µM in [10].

Take `COc1cc(-c2nn(-c3cccc(NC(=O)CCN4CCN(c5ccccc5)CC4)c3)cc2-c2ccncc2)ccc1Cl`: the GI50 is 2450 nM in assay [1]; 2310 nM in assay [2]; 2490 nM in assay [3]; 3110 nM in assay [4]; 3.63 µM in [5]; 4090 nM in assay [6]. Besides, the GI50 is 3.19 µM in [7], 4910 nM in assay [8], 2570 nM in assay [9] and 4120 nM in assay [10]. Moreover, the TGI is 9.97 µM in assay [1]; 7.01 µM in assay [2]; 8.01 µM in assay [3]; 31.3 µM in assay [4]; more than 100 µM in [5]; more than 100 µM in assay [6]. In addition, the TGI was more than 100 µM in assay [7], more than 100 µM in [8], 13 µM in assay [9] and more than 100 µM in assay [10].

For the molecule `CC(=O)OCC1OC(n2c3c(cc(C#N)c2=S)CCCC3)C(OC(C)=O)C(OC(C)=O)C1OC(C)=O` (centres undefined), the GI50 in [1] is 31700 nM and > 100000 nM; in [3] it was > 100000 nM and 26500 nM; in assay [5] it was 48.9 µM and > 100 µM; in assay [6], 44600 nM and > 100000 nM. The TGI in assay [1], in assay [2], in [3], in assay [4], in assay [5] and in [6] was more than 100 µM throughout. Moreover, the TGI in assay [7], in assay [8], in assay [9] and in [10] was more than 100 µM each time.

Regarding `COc1ccc(-c2csc(Nc3cccc(-c4csc(C)n4)c3)n2)cc1`, the GI50 in assay [1] was 1170 nM; in assay [2] it was 2790 nM; in assay [3], 249 nM; in assay [4] it was 354 nM; in [5], 0.138 µM; in assay [6], 441 nM. Besides, the GI50 is 1.98 µM in [7], 902 nM in assay [8], 366 nM in assay [9] and 697 nM in assay [10]. In addition, the TGI in assay [1] was more than 16.7 µM; in [2], 14.2 µM; in [3] it was 7.61 µM; in assay [4] it was more than 19.3 µM; in assay [5], 3.88 µM; in assay [6], more than 50 µM. The TGI in assay [7] is more than 12.1 µM; in assay [8], 49.8 µM; in [9], 1.02 µM; in assay [10], more than 41.6 µM.

On to `Cc1cc(S(N)(=O)=O)c(S/C(=N\NS(=O)(=O)c2ccccc2)c2ccc(Cl)cc2)cc1Cl`, for which the GI50 in assay [1] was more than 100000 nM; in assay [2], 87900 nM; in assay [3] it was more than 100000 nM; in assay [4], 65400 nM; in assay [5], 50.6 µM; in [6], more than 100000 nM. For the same molecule, the GI50 in assay [7] was more than 100 µM; in assay [8], more than 100000 nM; in assay [9], more than 100000 nM; in assay [10] it was more than 100000 nM. The TGI in assay [1], in assay [2], in assay [3], in assay [4], in [5] and in assay [6] was more than 100 µM in each case. Besides, the TGI in assay [7], in assay [8], in assay [9] and in assay [10] was more than 100 µM each time.
